Measurements from PubChem BioAssay (NCI).
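Abbreviation: GI50, concentration required for 50% inhibition of growth. TGI: total growth inhibition.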

Key:
Assay in all cases: inhibition of tumour cell growth, NCI panel, 384-well format
[1] = system: BT-549 breast
[2] = system: MOLT-4 leukemia
[3] = system: HCT-15 colon
[4] = system: MDA-MB-468 breast
[5] = system: NCI-H226 lung
[6] = system: U251 glioblastoma
[7] = system: NCI-H460 NSCLC
[8] = system: A498 renal
[9] = system: SNB-19 CNS
[10] = system: LOX IMVI melanoma
[11] = system: 786-0 renal
[12] = system: ACHN renal
[13] = system: COLO 205 colon

In the case of C[C@@H]1Cc2c(ccc3[nH]ncc23)[C@@H](c2ccc(NC3CN(CCCF)C3)cn2)N1CC(F)(F)F, the GI50 [1] is reported as 13.1 µM, the TGI [1] is reported as 25.9 µM and the GI50 [2] is reported as 3.09 µM. For the same compound, the TGI [2] was 12.8 µM, the GI50 [3] was 16.4 µM and the TGI [3] was 30.3 µM. For the same compound, the GI50 [4] was 7.75 µM, the TGI [4] was 20.1 µM and the GI50 [5] was 17.4 µM. The TGI [5] was 53.3 µM, the GI50 [6] was 15 µM and the TGI [6] was 28.4 µM. For the same compound, the GI50 [7] was 15.6 µM, the TGI [7] was 29.3 µM and the GI50 [8] was 12.5 µM. It also gave a TGI [8] of 25 µM, a GI50 [9] of 23.1 µM and a TGI [9] of 49.8 µM. The GI50 [10] was 15.8 µM, the TGI [10] was 29.3 µM and the GI50 [11] was 15.2 µM. The TGI [11] was 28.5 µM, the GI50 [12] was 17.5 µM and the TGI [12] was 31.5 µM. For the same compound, the GI50 [13] was 16.1 µM and the TGI [13] was 29.7 µM.
